Measurements from patent publication US11541132B2, “Radiolabeled compounds” (Hoffmann-La Roche Inc., priority 2017, dated 2023).

Tests used:
[1] = target: T1, native Aβ aggregates in human AD brain tissue sections (Homo sapiens, UniProt P05067); assay: Aβ in vitro displacement assay (selectivity counterscreen, [3H]Example 3 autoradiography); assay type: binding; conditions: 1 μM compound; 3 nM [3H]Example 3; human AD brain sections; read-out: sel. counterscreen PCT_INHIB AD @ 1 μM (% displacement of [3H]Example 3)
T1 construct: native Aβ aggregates in human AD brain tissue samples; from tissue; host or cells: human AD brain tissue sections

[2] = target: T2, native aSyn aggregates in A30P transgenic mouse brain sections (Homo sapiens, UniProt P37840, A30P); assay: aSyn in vitro displacement assay ([3H]Example-3 autoradiography); assay type: binding, mutant human aSyn gene); conditions: 1 μM compound; 3 nM [3H]Example-3; A30P transgenic mouse brain sections; read-out: PCT_INHIB A30P @ 1 μM (% displacement of [3H]Example-3)
T2 construct: from tissue; host or cells: brain sections (midbrain and pons as ROI) of A30P transgenic mice, line B6.D2-Tg(Thy1-SNCA*30P)31Pjk

T1 sequence (P05067 672-713 limits assumed): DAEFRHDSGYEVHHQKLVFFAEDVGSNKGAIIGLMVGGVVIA

inhibition at 1 µM [1] [%]	inhibition at 1 µM [2] [%]	SMILES
99	84	COc1ccc(C(=O)Nc2ccc(N3CCN(c4ccccn4)CC3)cn2)cc1 [Example 43, 4-Methoxy-N-(5-(4-(pyridin-2-yl)piperazin-1-yl)pyridin-2-yl)benzamide]
94	95	COc1ccc(C(=O)Nc2ccc(N3CCN(c4ccccn4)CC3)cn2)c(F)c1 [Example 44, 2-Fluoro-4-methoxy-N-(5-(4-(pyridin-2-yl)piperazin-1-yl)pyridin-2-yl)benzamide]
98	97	Cc1ccc(C(=O)Nc2ccc(N3CCN(c4ccccn4)CC3)cn2)cc1 [Example 45, 4-Methyl-N-(5-(4-(pyridin-2-yl)piperazin-1-yl)pyridin-2-yl)benzamide]
96	94	CN(C)c1ccc(C(=O)Nc2ccc(N3CCN(c4ccccn4)CC3)cn2)cc1 [Example 46, 4-(Dimethylamino)-N-(5-(4-(pyridin-2-yl)piperazin-1-yl)pyridin-2-yl)benzamide]
94	83	O=C(Nc1ccc(N2CCN(c3ccccn3)CC2)cn1)c1ccccc1F [Example 47, 2-Fluoro-N-(5-(4-(pyridin-2-yl)piperazin-1-yl)pyridin-2-yl)benzamide]
93	97	O=C(Nc1ccc(N2CCN(c3ccccn3)CC2)nn1)c1ccc(N2CCOCC2)cc1 [Example 48, 4-Morpholino-N-[6-[4-(2-pyridyl)piperazin-1-yl]pyridazin-3-yl]benzamide]
95	92	COc1ccc(C(=O)Nc2ccc(N3CCN(c4ncccn4)CC3)cc2)cc1 [Example 49, 4-Methoxy-N-{4-[4-(pyrimidin-2-yl)piperazin-1-yl]phenyl}benzamide]
86	97	COc1ccc(C(=O)Nc2ccc(N3CCN(c4ccc(C#N)cn4)CC3)cc2)cc1 [Example 50, N-(4-(4-(5-Cyanopyridin-2-yl)piperazin-1-yl)phenyl)-4-methoxybenzamide]
94	94	O=C(Nc1ccc(N2CCN(c3ccccn3)CC2)cn1)c1ccc(N2CCOCC2)cc1 [Example 51, 4-Morpholino-N-(5-(4-(pyridin-2-yl)piperazin-1-yl)pyridin-2-yl)benzamide]
95	92	Cc1ccc(C(=O)Nc2ccc(N3CCN(c4ccccn4)CC3)cn2)c(F)c1 [Example 52, 2-Fluoro-4-methyl-N-(5-(4-(pyridin-2-yl)piperazin-1-yl)pyridin-2-yl)benzamide]
86	82	Cc1ccc(C(=O)Nc2ccc(N3CCN(c4ccccn4)CC3)cn2)nc1 [Example 53, 5-Methyl-N-(5-(4-(pyridin-2-yl)piperazin-1-yl)pyridin-2-yl)picolinamide]
90	82	Cc1cccc(C(=O)Nc2ccc(N3CCN(c4ccccn4)CC3)cn2)c1 [Example 54, 3-Methyl-N-(5-(4-(pyridin-2-yl)piperazin-1-yl)pyridin-2-yl)benzamide]
95	81	COc1ccc(C(=O)Nc2ccc(N3CCN(c4ncncn4)CC3)cc2)cc1 [Example 55, 4-Methoxy-N-{4-[4-(1,3,5-triazin-2-yl)piperazin-1-yl]phenyl}benzamide]
98	88	COc1ccc(C(=O)Nc2ccc(N3CCN(c4ccncn4)CC3)cc2)cc1 [Example 56, 4-Methoxy-N-{4-[4-(pyrimidin-4-yl)piperazin-1-yl]phenyl}benzamide]
101	102	COc1ccc(C(=O)Nc2ccc(N3CCN(c4ccc(C#N)cc4)CC3)cc2)cc1 [Example 57, N-[4-[4-(4-Cyanophenyl)piperazin-1-yl]phenyl]-4-methoxy-benzamide]
92	93	COc1ccc(C(=O)Nc2ccc(N3CCN(c4ccc(OC)nc4)CC3)cc2)cc1 [Example 58, 4-Methoxy-N-[4-[4-(6-methoxypyridin-3-yl)piperazin-1-yl]phenyl]benzamide]
97	85	COc1ccc(C(=O)Nc2cnc(N3CCN(c4ccccn4)CC3)nc2)cc1 [Example 59, 4-Methoxy-N-(2-(4-(pyridin-2-yl)piperazin-1-yl)pyrimidin-5-yl)benzamide]
96	85	COc1ccc(C(=O)Nc2cnc(N3CCN(c4ccccn4)CC3)nc2)c(F)c1 [Example 60, 2-Fluoro-4-methoxy-N-(2-(4-(pyridin-2-yl)piperazin-1-yl)pyrimidin-5-yl)benzamide]
93	86	O=C(Nc1cnc(N2CCN(c3ccccn3)CC2)nc1)c1ccccc1F [Example 61, 2-Fluoro-N-(2-(4-(pyridin-2-yl)piperazin-1-yl)pyrimidin-5-yl)benzamide]

inhibition at 1 µM [1] [%]	inhibition at 1 µM [2] [%]	SMILES
97	89	CN(C)c1ccc(C(=O)Nc2cnc(N3CCN(c4ccccn4)CC3)nc2)cc1 [Example 62, 4-(Dimethylamino)-N-(2-(4-(pyridin-2-yl)piperazin-1-yl)pyrimidin-5-yl)benzamide]
94	95	O=C(Nc1cnc(N2CCN(c3ccccn3)CC2)nc1)c1ccc(N2CCOCC2)cc1 [Example 63, 4-Morpholino-N-(2-(4-(pyridin-2-yl)piperazin-1-yl)pyrimidin-5-yl)benzamide]
92	88	Cc1cccc(C(=O)Nc2cnc(N3CCN(c4ccccn4)CC3)nc2)c1 [Example 64, 3-Methyl-N-(2-(4-(pyridin-2-yl)piperazin-1-yl)pyrimidin-5-yl)benzamide]
99	100	COc1ccc(C(=O)Nc2ccc(N3CCN(c4cc(C#N)ccn4)CC3)cc2)cc1 [Example 65, N-[4-[4-(4-Cyano-2-pyridyl)piperazin-1-yl]phenyl]-4-methoxy-benzamide]
103	104	COc1ccc(C(=O)Nc2ccc(N3CCN(c4cccs4)CC3)cc2)cc1 [Example 66, 4-Methoxy-N-{4-[4-(thiophen-2-yl)piperazin-1-yl]phenyl}benzamide]
88	94	COc1ccc(C(=O)Nc2ccc(N3CCN(c4cccnc4OC)CC3)cc2)cc1 [Example 67, 4-Methoxy-N-{4-[4-(2-methoxypyridin-3-yl)piperazin-1-yl]phenyl}benzamide]
90	96	COc1ccc(C(=O)Nc2ccc(N3CCN(c4cccc(OC)n4)CC3)cc2)cc1 [Example 68, 4-Methoxy-N-{4-[4-(6-methoxypyridin-2-yl)piperazin-1-yl]phenyl}benzamide]
86	89	COc1ccc(C(=O)Nc2ccc(N3CCN(c4ccccc4OC)CC3)cc2)cc1 [Example 69, 4-Methoxy-N-{4-[4-(2-methoxyphenyl)piperazin-1-yl]phenyl}benzamide]
64	84	COc1ccc(C(=O)Nc2ccc(N3CCN(c4ccccc4C#N)CC3)cc2)cc1 [Example 70, N-{4-[4-(2-Cyanophenyl)piperazin-1-yl]phenyl}-4-methoxybenzamide]
100	101	COc1ccc(C(=O)Nc2ccc(N3CCN(c4ccccc4F)CC3)cc2)cc1 [Example 71, N-{4-[4-(2-Fluorophenyl)piperazin-1-yl]phenyl}-4-methoxybenzamide]
86	80	COc1ccc(C(=O)Nc2cnc(N3CCN(c4ccccn4)CC3)nc2)c(C)c1 [Example 72, 4-Methoxy-2-methyl-N-(2-(4-(pyridin-2-yl)piperazin-1-yl)pyrimidin-5-yl)benzamide]
91	88	CN1CCN(c2ccc(C(=O)Nc3cnc(N4CCN(c5ccccn5)CC4)nc3)cc2)CC1 [Example 73, 4-(4-Methylpiperazin-1-yl)-N-(2-(4-(pyridin-2-yl)piperazin-1-yl)pyrimidin-5-yl)benzamide]
95	93	Cc1ccc(C(=O)Nc2cnc(N3CCN(c4ccccn4)CC3)nc2)cc1 [Example 74, 4-Methyl-N-(2-(4-(pyridin-2-yl)piperazin-1-yl)pyrimidin-5-yl)benzamide]
95	95	Cc1ccc(C(=O)Nc2cnc(N3CCN(c4ccccn4)CC3)nc2)nc1 [Example 75, 5-Methyl-N-(2-(4-(pyridin-2-yl)piperazin-1-yl)pyrimidin-5-yl)picolinamide]
91	94	COc1ccc(C(=O)Nc2ccc(N3CCN(c4ccccn4)CC3)cn2)nc1 [Example 76, 5-Methoxy-N-(5-(4-(pyridin-2-yl)piperazin-1-yl)pyridin-2-yl)picolinamide]
96	98	COc1ccc(C(=O)Nc2ccc(N3CCN(c4cccnc4)CC3)cc2)nc1 [Example 77, 5-Methoxy-N-(4-(4-(pyridin-3-yl)piperazin-1-yl)phenyl)picolinamide]
94	98	COc1ccc(C(=O)Nc2ccc(N3CCN(c4ccccn4)CC3)cc2)nc1 [Example 78, 5-Methoxy-N-(4-(4-(pyridin-2-yl)piperazin-1-yl)phenyl)picolinamide]
93	95	COc1ccc(C(=O)Nc2cnc(N3CCN(c4ccccn4)CC3)nc2)nc1 [Example 79, 5-Methoxy-N-(2-(4-(pyridin-2-yl)piperazin-1-yl)pyrimidin-5-yl)picolinamide]
